Experiment: Cytotoxicity against HEK293 cells transfected with recombinant AOR by MTT assay

Row | Structure (SMILES) | IC50 [nM]
1 | CC1=CC2=C(C)C3(CC3)[C@@](C)(O)C(=O)C2=C1 [ACYLFULVENE] | 95
2 | CC1=C(CO)C2=C(C)C3(CC3)[C@@](C)(O)C(=O)C2=C1 [IROFULVEN] | 55
3 | CC1=C(CO)C2=C(C)C3(CC3)[C@](C)(O)C(=O)C2=C1 | 1420
4 | CC1=CC2=C(C)C3(CC3)[C@](C)(O)C(=O)C2=C1 | 5000

— BindingDB's records for doi:10.1021/jm051104t (University of Minnesota, 2006)
